ChEMBL document CHEMBL1938310, “Discovery of novel antitubercular 1,5-dimethyl-2-phenyl-4-([5-(arylamino)-1,3,4-oxadiazol-2-yl]methylamino)-1,2-dihydro-3H-pyrazol-3-one analogues” (Bioorg Med Chem Lett, 2012)
Values after ≈ are worked out from the molar mass of the structure shown.

Tests used:
[1] = tested on: Mycobacterium tuberculosis; test: Antimycobacterial activity against Mycobacterium tuberculosis H37Rv by two fold agar dilution method; assay type: functional
Vero = test: Cytotoxicity against African green monkey Vero cells at 62.5 ug/ml after 72 hrs by MTT assay; assay type: cell-based; conditions: chlorocebus sabaeus

Structure (SMILES) | MIC [1] | Activity (Vero)
Cc1c(NCc2nnc(Nc3ccc(S(N)(=O)=O)cc3)o2)c(=O)n(-c2ccccc2)n1C | 3.12 µg/mL (≈ 6.85 µM) | Non-toxic
COc1ccc(Nc2nnc(CNc3c(C)n(C)n(-c4ccccc4)c3=O)o2)c(OC)c1 | > 12.5 µg/mL | –
COc1ccc(Nc2nnc(CNc3c(C)n(C)n(-c4ccccc4)c3=O)o2)cc1 | 12.5 µg/mL (≈ 30.8 µM) | –
Cc1c(NCc2nnc(Nc3ccc(Br)cc3)o2)c(=O)n(-c2ccccc2)n1C | 6.25 µg/mL (≈ 13.7 µM) | Non-toxic
CCOc1ccc(Nc2nnc(CNc3c(C)n(C)n(-c4ccccc4)c3=O)o2)cc1 | > 12.5 µg/mL | –
Cc1c(Cl)cccc1Nc1nnc(CNc2c(C)n(C)n(-c3ccccc3)c2=O)o1 | 10 µg/mL (≈ 23.5 µM) | –
Cc1c(NCc2nnc(Nc3ccc(Cl)cc3)o2)c(=O)n(-c2ccccc2)n1C | 6.25 µg/mL (≈ 15.2 µM) | Non-toxic
Cc1c(NCc2nnc(Nc3ccc([N+](=O)[O-])cc3)o2)c(=O)n(-c2ccccc2)n1C | 3.12 µg/mL (≈ 7.4 µM) | Non-toxic
Cc1c(NCc2nnc(Nc3ccc(O)cc3)o2)c(=O)n(-c2ccccc2)n1C | 10 µg/mL (≈ 25.5 µM) | –
Cc1c(NCc2nnc(Nc3ccc(F)cc3)o2)c(=O)n(-c2ccccc2)n1C | 0.78 µg/mL (≈ 1.98 µM) | Non-toxic
Cc1ccc(Nc2nnc(CNc3c(C)n(C)n(-c4ccccc4)c3=O)o2)cc1 | 12.5 µg/mL (≈ 32 µM) | –
Cc1ccc(Nc2nnc(CNc3c(C)n(C)n(-c4ccccc4)c3=O)o2)c(C)c1 | 12.5 µg/mL (≈ 30.9 µM) | –
Cc1c(NCc2nnc(Nc3ccccc3Cl)o2)c(=O)n(-c2ccccc2)n1C | 10 µg/mL (≈ 24.3 µM) | –
Cc1cccc(C)c1Nc1nnc(CNc2c(C)n(C)n(-c3ccccc3)c2=O)o1 | 10 µg/mL (≈ 24.7 µM) | –
Cc1c(NCc2nnc(Nc3ccccc3)o2)c(=O)n(-c2ccccc2)n1C | 10 µg/mL (≈ 26.6 µM) | –
NNC(=O)c1ccncc1 [ISONIAZID] | 0.78 µg/mL (≈ 5.69 µM) | –
Cc1c(NCc2nnc(Nc3ccc(F)c(Cl)c3)o2)c(=O)n(-c2ccccc2)n1C | 6.25 µg/mL (≈ 14.6 µM) | Non-toxic
